Experimental data as given in US11464733B2, “Enema for rectal application” (Dr. Falk Pharma GmbH, priority 2016, dated 2022).

Key:
serous cortisol = experiment: Same trial: blood biochemistry check, serous cortisol density; format: in vivo, human
[1] = tested on: serous ACTH (adrenocorticotropic hormone); experiment: Same trial: blood biochemistry check, serous ACTH density; format: in vivo, human
[2] = tested on: patients with active ulcerative colitis; experiment: Same trial: safety, adverse events; format: in vivo, human
Protocol: (§1) Superiority of the budesonide compared with placebo for mucosal healing as the primary endpoint are investigated for patients with active ulcerative colitis when budesonide 2 mg is rectally administered twice a day for 6 weeks by a double-blind comparative study with placebo as a control, and the safety thereof was investigated.
(§2) Furthermore, the efficacy and safety of administering were investigated, to patients with inflammatory bowel disease who have been administered 1.5 to 2.5 mg of budesonide twice a day for 6 weeks and shown signs of healing but no mucous membrane healing, 1.5 to 2.5 mg of budesonide twice a day for an additional 6 weeks (for a total of 12 weeks) (clinical trial number: Japic CTI—142704).
(§3) The test drug or control drug is rectally administered twice a day (once in the morning and once in the evening), after defecation, if possible. The number of injections per dose is one, the administration period is 6 weeks, if no mucous membrane healing occurred (an endoscope view score of 0 points), an administration period of 12 weeks can be used, and the drug is administered until the evening before the evaluation. The dose of budesonide in each group is 4 mg/day for the twice a day group, and 0 mg/day for the placebo group. The subjects with a 12-week administration period included 20 subjects in the budesonide administered group, and 18 subjects in the placebo group.

[3] = tested on: patients with active ulcerative colitis; experiment: Placebo-controlled double-blind trial: mucosal endoscopy, MMDAI endoscopic finding score; format: in vivo, human; settings: for Number of subjects with MMDAI endoscopic finding score 0 / Number of subjects with MMDAI endoscopic finding score 1 / Number of subjects with MMDAI endoscopic finding score 2 / Number of subjects with MMDAI endoscopic finding score 3 / Percentage of subjects with MMDAI endoscopic finding score 0 / Percentage of subjects with MMDAI endoscopic finding score 1 / Percentage of subjects with MMDAI endoscopic finding score 2 / Percentage of subjects with MMDAI endoscopic finding score 3: 2 mg rectal foam twice a day, 20 cases
Protocol: Placebo-controlled randomized double-blind multicenter collaborative parallel group comparison test
as §1, §2
For the trial, an aerosol with fixed dose injection type for rectal injection (rectal foaming agent) is used as a test drug, in which 25 mL (1.35 g) of white creamy foam containing 2 mg of budesonide is released by one injection. As a remission induction therapeutic agent of ulcerative colitis in active phase where the lesion is confined to the rectum and sigmoid colon, the aerosol for rectal injection is approved in Europe at a dosage and dose of budesonide 2 mg once a day (trade name: Budenofalk 2 mg/dose rectal foam, manufactured by Dr. Falk Pharma GmbH).
The subjects are ulcerative colitis patients in active phase, and are divided into a group administered the test drug twice a day (hereafter, the budesonide-administered group), and a group administered the control drug (hereinafter, the placebo group).
as §3
The score by the doctor was used for the initial test, and after an administration period of 6 weeks, whether the prescription was continued for 6 more weeks or not. The score by the central judgment committee was used as the judgement of effectiveness. […] Furthermore, the change of the endoscope finding score from 6th week to 12th week of each subject of placebo group is shown in Table 2, and the change in the endoscope finding score from 6th week to 12th week of each subject of the budesonide-administered group is shown in Table 3.

[4] = cited from earlier work
acidophilic leucocyte = experiment: Same trial: hematology checks, leukocyte fractionation; format: in vivo, human
[5] = 0th week (before prescription), 20 cases analysed
[6] = 12th week (prescription end), 19 cases analysed
[7] = After observation, 20 cases analysed
[8] = 0 week (before administration), 12-week subjects
[9] = Table 3 total over 6th week scores, of 20
[10] = Table 3 total over 6th week scores, unmeasured listed separately, of 20
[11] = change from 6th to 12th week, 2 mg twice a day, of 20

SMILES: CCCC1O[C@@H]2C[C@H]3[C@@H]4CCC5=CC(=O)C=C[C@]5(C)[C@H]4[C@@H](O)C[C@]3(C)[C@]2(C(=O)CO)O1 (mixture of isomers) [Budesonide, (+)-[(RS)-16α,17α-Butylidenedioxy-11β,21-dihydroxy-1,4-pregnadiene-3,20-dione]]
- Serous cortisol: applicable examples (cases below standard value) (serous cortisol; [5]): 0
- Serous cortisol: percentage of cases below standard value (serous cortisol; [5]): 0.0%
- Serous cortisol: percentage of cases below standard value (serous cortisol; 0th week (before prescription), 20 cases analysed, listed as budesonide): 0%
- Serous cortisol density (serous cortisol; 6th week and 12th week versus 0th week (before prescription)): low compared with the 0th week
- Serous cortisol: applicable examples (cases below standard value) (serous cortisol; [6]): 11
- Serous cortisol: percentage of cases below standard value (serous cortisol; [6]): 57.9%
- Serous cortisol: applicable examples (cases below standard value) (serous cortisol; [7]): 2
- Serous cortisol: percentage of cases below standard value (serous cortisol; [7]): 10.0%
- Recovery of subjects with both serous cortisol and serous ACTH density below the standard value in the 12th week (serous cortisol; by the after observation): mostly recovered to within the standard value
- Serous cortisol density after end of administration (serous cortisol; observed for 2-4 weeks after the end of the 12-week administration period): reverting to the value in the 0th week
- Serous ACTH: applicable examples (cases below standard value) [1, 5]: 3
- Serous ACTH: percentage of cases below standard value [1, 5]: 15.0%
- Serous ACTH: applicable examples (cases below standard value) [1, 6]: 8
- Serous ACTH: percentage of cases below standard value [1, 6]: 42.1%
- Serous ACTH: applicable examples (cases below standard value) [1, 7]: 2
- Serous ACTH: percentage of cases below standard value [1, 7]: 10.0%
- Death, severe adverse events or serious adverse event ([2]; 12 week administration): no death, severe adverse events or serious adverse event, were observed
- Tolerability ([2]; budesonide 2 mg, rectal administration twice a day for 6 weeks (so in the source), patients of ulcerative colitis): acceptable
- Manifestation of adverse events as a result of the drug tested ([2]; versus placebo group): couldn't admit between Placebo group
- Manifested frequency of the adverse event ([2]; versus placebo group): higher than in the placebo group
- Number of subjects with MMDAI endoscopic finding score 0 [3, 8]: 0 subjects
- Number of subjects with MMDAI endoscopic finding score 1 [3, 8]: 3 subjects
- Number of subjects with MMDAI endoscopic finding score 2 [3, 8]: 16 subjects
- Number of subjects with MMDAI endoscopic finding score 3 [3, 8]: 1 subjects
- Percentage of subjects with MMDAI endoscopic finding score 0 [3, 8]: (0.0) %
- Percentage of subjects with MMDAI endoscopic finding score 1 [3, 8]: (15.0) %
- Percentage of subjects with MMDAI endoscopic finding score 2 [3, 8]: (80.0) %
- Percentage of subjects with MMDAI endoscopic finding score 3 [3, 8]: (5.0) %
- Percentage with an endoscope view score of 0 in the 12th week, except for non-measured group ([3]; 6/15 examples, placebo 0% (0/13), administration continued for 6 more weeks): 40.0%
- Number of subjects with MMDAI endoscopic finding score 0 ([3]; 6th week, 12-week subjects): 4 subjects
- Number of subjects with MMDAI endoscopic finding score 1 ([3]; 6th week, 12-week subjects): 14 subjects
- Number of subjects with MMDAI endoscopic finding score 2 ([3]; 6th week, 12-week subjects): 2 subjects
- Number of subjects with MMDAI endoscopic finding score 3 ([3]; 6th week, 12-week subjects): 0 subjects
- Percentage of subjects with MMDAI endoscopic finding score 1 ([3]; 6th week, 12-week subjects): (70.0) %
- Number of subjects with MMDAI endoscopic finding score 0 ([3]; 12th week (Table 1)): 6 subjects
- Number of subjects with MMDAI endoscopic finding score 1 ([3]; 12th week (Table 1)): 8 subjects
- Number of subjects with MMDAI endoscopic finding score 2 ([3]; 12th week (Table 1)): 6 subjects
- Number of subjects with MMDAI endoscopic finding score 3 ([3]; 12th week (Table 1)): 0 subjects
- Percentage of subjects with MMDAI endoscopic finding score 0 ([3]; 12th week (Table 1)): (30.0) %
- Percentage of subjects with MMDAI endoscopic finding score 1 ([3]; 12th week (Table 1)): (40.0) %
- Percentage of subjects with MMDAI endoscopic finding score 2 ([3]; 12th week (Table 1)): (30.0) %
- Percentage of subjects with MMDAI endoscopic finding score 3 ([3]; 12th week (Table 1)): (0.0) %
- Number of subjects, 12th week Unmeasured, Total [3, 9]: 5 subjects
- Percentage of subjects, 12th week Unmeasured, Total [3, 9]: (25.0) %
- Number of subjects, endoscope finding score 12th week 0, Total [3, 10]: 6 subjects
- Number of subjects, endoscope finding score 12th week 1, Total [3, 10]: 7 subjects
- Number of subjects, endoscope finding score 12th week 2, Total [3, 10]: 2 subjects
- Number of subjects, endoscope finding score 12th week 3, Total [3, 10]: 0 subjects
- Percentage of subjects, endoscope finding score 12th week 0, Total [3, 10]: (30.0) %
- Percentage of subjects, endoscope finding score 12th week 1, Total [3, 10]: (35.0) %
- Percentage of subjects, endoscope finding score 12th week 2, Total [3, 10]: (10.0) %
- Percentage of subjects, endoscope finding score 12th week 3, Total [3, 10]: (0.0) %
- Number of subjects, endoscope finding score 6th week 0 / 12th week 0 [3, 11]: 0 subjects
- Number of subjects, endoscope finding score 6th week 0 / 12th week 1 [3, 11]: 1 subjects
- Number of subjects, endoscope finding score 6th week 0 / 12th week 2 [3, 11]: 0 subjects
- Number of subjects, endoscope finding score 6th week 0 / 12th week 3 [3, 11]: 0 subjects
- Number of subjects, endoscope finding score 6th week 0 / 12th week Unmeasured [3, 11]: 3 subjects
- Number of subjects, endoscope finding score 6th week 1 / 12th week 0 [3, 11]: 5 subjects
- Number of subjects, endoscope finding score 6th week 1 / 12th week 1 [3, 11]: 6 subjects
- Number of subjects, endoscope finding score 6th week 1 / 12th week 2 [3, 11]: 1 subjects
- Number of subjects, endoscope finding score 6th week 1 / 12th week 3 [3, 11]: 0 subjects
- Number of subjects, endoscope finding score 6th week 1 / 12th week Unmeasured [3, 11]: 2 subjects
- Number of subjects, endoscope finding score 6th week 2 / 12th week 0 [3, 11]: 1 subjects
- Number of subjects, endoscope finding score 6th week 2 / 12th week 1 [3, 11]: 0 subjects
- Number of subjects, endoscope finding score 6th week 2 / 12th week 2 [3, 11]: 1 subjects
- Number of subjects, endoscope finding score 6th week 2 / 12th week 3 [3, 11]: 0 subjects
- Number of subjects, endoscope finding score 6th week 2 / 12th week Unmeasured [3, 11]: 0 subjects
- Number of subjects, endoscope finding score 6th week 3 / 12th week 0 [3, 11]: 0 subjects
- Number of subjects, endoscope finding score 6th week 3 / 12th week 1 [3, 11]: 0 subjects
- Number of subjects, endoscope finding score 6th week 3 / 12th week 2 [3, 11]: 0 subjects
- Number of subjects, endoscope finding score 6th week 3 / 12th week 3 [3, 11]: 0 subjects
- Number of subjects, endoscope finding score 6th week 3 / 12th week Unmeasured [3, 11]: 0 subjects
- Percentage of subjects, endoscope finding score 6th week 0 / 12th week 0 [3, 11]: 0.0%
- Percentage of subjects, endoscope finding score 6th week 0 / 12th week 1 [3, 11]: 5.0%
- Percentage of subjects, endoscope finding score 6th week 0 / 12th week 2 [3, 11]: 0.0%
- Percentage of subjects, endoscope finding score 6th week 0 / 12th week 3 [3, 11]: 0.0%
- Percentage of subjects, endoscope finding score 6th week 0 / 12th week Unmeasured [3, 11]: 15.0%
- Percentage of subjects, endoscope finding score 6th week 1 / 12th week 1 [3, 11]: (30.0) %
- Percentage of subjects, endoscope finding score 6th week 1 / 12th week 3 [3, 11]: (0.0) %
- Percentage of subjects, endoscope finding score 6th week 1 / 12th week Unmeasured [3, 11]: (10.0) %
- Percentage of subjects, endoscope finding score 6th week 2 / 12th week 0 [3, 11]: 5.0%
- Percentage of subjects, endoscope finding score 6th week 2 / 12th week 1 [3, 11]: 0.0%
- Percentage of subjects, endoscope finding score 6th week 2 / 12th week 2 [3, 11]: 5.0%
- Percentage of subjects, endoscope finding score 6th week 2 / 12th week 3 [3, 11]: 0.0%
- Percentage of subjects, endoscope finding score 6th week 2 / 12th week Unmeasured [3, 11]: 0.0%
- Percentage of subjects, endoscope finding score 6th week 3 / 12th week 0 [3, 11]: 0.0%
- Percentage of subjects, endoscope finding score 6th week 3 / 12th week 1 [3, 11]: 0.0%
- Percentage of subjects, endoscope finding score 6th week 3 / 12th week 2 [3, 11]: 0.0%
- Percentage of subjects, endoscope finding score 6th week 3 / 12th week 3 [3, 11]: 0.0%
- Percentage of subjects, endoscope finding score 6th week 3 / 12th week Unmeasured [3, 11]: 0.0%
- Solubility in water [4]: low solubility in water
- Percentage of the acidophilic leucocyte of leukocyte fractionation (acidophilic leucocyte; 4th week to 12th week compared with 0th week and placebo group): decrease
- Other items of hematology and blood biochemistry checks (acidophilic leucocyte; in vivo): no clear fluctuation in other items could be seen
